US8491891B2, “Human beta-glucuronidase mutants with elevated enzymatic activity under physiological conditions and method for identifying such” (Academia Sinica, priority 2008, dated 2013)

Columns and labels:
EJ/mβG tumor xenografts = experiment: Anti-tumor effect of CPT-11 on EJ/mβG xenografts; format: in vivo, Beige-SCID mice; conditions: EJ/mβG tumors, dose of 10 mg/kg, i.v. on two consecutive days
Experimental: (§1) Three to four month old Beige-SCID female mice were used in this study. The mice were maintained under SPF conditions and were fed a standard laboratory diet with free access to food and water, under artificial circadian rhythm. EJ or EJ/mβG cells were injected into the mice subcutaneously in their right flank to form tumor xenografts.

[1] = system: EJ human bladder carcinoma cells; experiment: Sensitivity of EJ cells to CPT-11, SN-38, SN-38G (3H-thymidine incorporation); conditions: read-out: IC50 (cytotoxicity), 24 h exposure, pH not stated
EJ/mβG cells = experiment: Sensitivity of EJ/mβG cells to CPT-11, SN-38, SN-38G (3H-thymidine incorporation); conditions: read-out: IC50 (cytotoxicity); EJ/mβG cells, 24 h exposure, pH not stated
[2] = Serum concentrations of CPT-11, SN-38 and SN-38G after CPT-11 administration
[3] = Intratumoral concentrations of CPT-11, SN-38 and SN-38G after CPT-11 treatment (SPE-HPLC)
Experimental: Tumors were collected 2, 8 and 24 h after CPT treatment, immediately dispersed in ice-cold acidic methanol (methanol: water: perchloric acid=20:20:1), and homogenized 60 sec on an Ultraturax tissue homogenizer at 20,000 rpm. The samples were clarified by centrifugation at 15,000 g for 5 min at 4° C. Supernatants were diluted with 0.1 M KH2PO4 and then separated by SPE-HPLC on a μBondapack column with 27% acetonitrile in 0.1 M potassium phosphate buffer pH=2.6. […] These three analytes were quantified by comparison with standard curves generated with analyte concentrations ranging from 2.0 pg to 200 ng.

EJ tumor xenografts = experiment: Anti-tumor effect of CPT-11 on EJ xenografts; format: in vivo, Beige-SCID mice; conditions: EJ tumors, dose of 10 mg/kg, i.v. on two consecutive days
Experimental: as §1

[4] = system: EJ human bladder cancer cells; experiment: Prodrug activation of SN-38G by enzyme, 3H-thymidine incorporation; format: cell-based; conditions: 100 nM SN-38G
Experimental: (§2) The prodrug activation activity of the human beta-glucuronidase variants was determined as follows. EJ human bladder cancer cells were incubated with graded concentrations (see FIGS. 3B and 3C) of human β-glucuronidase variants in RPMI (pH 6.8) containing either 10 μM HAMG or 100 nM SN-38G for 24 hours. The cells were further incubated for 24 hours in fresh medium before incorporation of ^3H-thymidine into cellular DNA was measured following the procedure described below.
(§3) Purified recombinant human beta-glucuronidase and its variants with defined concentrations were mixed with 10 μM HAMG or 100 nM SN-38G and the mixture was added to 5000 EJ human bladder cancer cells in 200 μl complete medium at pH 6.8 for 24 h. The cells were washed and incubated in fresh medium for 24 h and then pulsed for 16 h with ^3H-thymidine (1 μCi/well). The cells were harvested and the radioactivity was measured in a TopCount Microplate Scintillation Counter (Packard, Meriden, Conn.). Results are expressed as percent inhibition of ^3H-thymidine incorporation into cellular DNA in comparison to untreated cells.

[5] = Kinetic values (Km, kcat) of soluble recombinant human β-glucuronidase and variants; format: biochemical
Experimental: Recombinant His-tagged wild-type human β-glucuronidase and its variants (soluble) were produced in and purified from stable 3T3 fibroblast lines, following the method described above also the method described in Wu et al., Biotechnol Appl Biochem 40:167-172 (2004).
The pH-dependent enzyme activities of the above-mentioned recombinant human beta-glucuronidase and variants were measured in triplicate with 0.1 mM ELF97 β-D-glucuronide at 37° C. for 30 minutes at a defined pH ranging from 3-10 in a beta-glucuronidase reaction buffer (50 mM Bis-Tris, 50 mM triethanol amine, 100 mM acetic acid, 0.1% BSA). The reaction was quenched by adding an equal volume of a stop buffer (2 M Tris-HCl, 0.8 M sodium bicarbonate, pH 8). The fluorescence of ELF97 was measured in a Gemini EM microplate spectrofluorometer (Molecular Device, Sunnyvale, Calif.) at excitation/emission wavelengths of 355/555 nm. Kinetic values for human beta-glucuronidase substrate hydrolysis were determined by diluting ELF97 β-D-glucuronide (2 mM) in a pH 4.5 or pH 7.0 beta-glucuronidase reaction buffer 1:1 with defined concentrations of human beta-glucuronidase in 200 μl. Fluorescence was immediately measured under thermal control at 37° C. for 8-10 min. The measurement was repeated using the same amount of enzyme at different substrate concentrations in an optimal range. The acquired readings were converted to product concentration based on preestablished standard curves. Double reciprocal plots were used to determine Km and kcat. Kinetic assays were performed at least 3 times and mean values were calculated. The stability of recombinant human beta-glucuronidase variants was carried out by measuring their enzymatic activity at time 0 and again after incubating 5 μg purified enzymes in PBS (containing 0.5 mg/ml BSA) at 37° C. for 14 days. The enzymatic activities of the human beta-glucuronidase variants were measured in triplicate with 0.5 mM 4-methylumbelliferyl β-D-glucuronide at 37° C. for 15 minutes at pH 7.0 in β-glucuronidase reaction buffer. The reaction was terminated by adding an equal volume of a stop buffer (1 M glycine, 0.5 M sodium bicarbonate, pH 11) and the fluorescence was measured at excitation/emission wavelengths of 355/460 nm in a microplate spectrofluorometer.

[6] = Beta-glucuronidase activity of fusion proteins at pH 7.0; format: biochemical; conditions: pH 7.0, 0.5 mM substrate, 30 minutes, 37° C.
Experimental: Next, the beta-glucuronidase activity of the fusion proteins was measured by adding 0.5 mM 4-methylumbelliferyl β-D-glucuronide in a beta-glucuronidase reaction buffer (50 mM Bis-Tris, 50 mM triethanol amine, 100 mM acetic acid, 100 ng/ml bovine serum albumin, pH 7.0) for 30 minutes at 37° C. The reaction was terminated by adding an equal volume of stop buffer (1 M glycine, 0.5 M sodium bicarbonate, pH 11). The fluorescence of 4-MU was measured at excitation/emission wavelengths of 355/460 nm in a Gemini EM microplate spectrofluorometer (Molecular Device, Sunnyvale, Calif.). […] See also FIG. 9.

[7] = Relative activity of membrane-tethered human β-glucuronidase variants on 3T3 cells by flow cytometry (FL4/FL1); format: cell-based; conditions: membrane-tethered enzyme, pH 7.0, substrate ELF97 β-D-glucuronide
Experimental: The 3T3 cell libraries mentioned above were screened by FACS analysis for cells that express human β-glucuronidase variants with elevated enzymatic activity. 10^7 3T3 cells expressing membrane-bound human β-glucuronidase variants were washed and suspended in 0.4 ml BSA/HBSS (5.4 mM KCl, 0.3 mM Na2HPO4, 0.4 mM KH2PO4, 4.2 mM NaHCO3, 1.3 mM CaCl2, 0.5 mM MgCl2, 0.6 mM MgSO4, 137 mM NaCl, 5.6 mM D-glucose, pH 7.4) containing 0.5% bovine serum albumin (BSA) and 20 μg/ml 7G8-FITC for 30 min at 4° C. Cells were then washed and incubated with 25, 50 or 100 μM ELF97 β-D-glucuronide at defined pH values in 50 mM Bis-Tris, 25 mM glucose, 85.6 mM NaCl, 5.4 mM KCl, 0.6 mM MgSO4, 1.3 mM CaCl2) at 37° C. for 10 min. The cells were washed with ice-cold 0.5% BSA/HBSS and suspended in 0.5% BSA/HBSS containing 5 μg/ml propidium iodide (Sigma). Cells were then sorted on a FACSVantage DiVa (Becton, Dickinson and Company, Franklin Lakes, N.J.) equipped with an Enterprise IIC argon laser for dual excitation at 488 and 351-364 nm. Dead cells (propidium iodide positive, high FL3 fluorescence) were gated out before 7G8-FITC immunofluorescence was detected at excitation/emission wavelengths of 488/515 nm (FL1) and ELF97 was detected at excitation/emission wavelengths of 351/530 nm (FL4). […] The sorted cells were cultured for 4-10 days for sequential rounds of cell sorting or RNA extraction. Flow cytometer data was analyzed using Flowjo (Tree star, Ashland, Oreg.).
Independent 3T3 clones (5×10^7) in library EP2 mentioned above were immunofluorescence stained with 7G8-FITC and reacted with ELF97 β-D-glucuronide at pH 7.0. Sixteen individual cell clones were isolated after three rounds of sorting and the human β-glucuronidase genes were sequenced. […] Table 1 below lists amino acid substitutions in five exemplary variants and their relative enzymatic activities.

[8] = system: EJ human bladder cancer cells; experiment: Prodrug activation of HAMG by enzyme, 3H-thymidine incorporation; format: cell-based; conditions: 10 μM HAMG
Experimental: as §2, §3

[9] = 24 h after CPT-11 10 mg/kg i.v.

Question: Which “Delay of tumor growth” value (EJ/mβG tumor xenografts) does the source give for `CCc1c2c(nc3ccc(OC(=O)N4CCC(N5CCCCC5)CC4)cc13)-c1cc3c(c(=O)n1C2)COC(=O)[C@]3(O)CC` [CPT-11] here?
Answer: Its value is “significantly delayed”.

Question: And the IC50 [1]?
Answer: The IC50 was ~2.1 µM.

Question: And the IC50 (EJ/mβG cells)?
Answer: The IC50 was ~2.1 µM.

Question: What about the “Serum levels in mice bearing EJ versus EJ/mβG tumor” value ([2]; 2 h after CPT-11 administration) of the same molecule?
Answer: The value was “similar”.

Question: What about the “Serum concentrations in mice bearing EJ versus EJ/mβG tumor” value ([2]; 8 h or 24 h after CPT-11 administration) of the same molecule?
Answer: Its value is “no significant differences”.

Question: What about the “Intratumoral concentrations in EJ versus EJ/mβG tumors” value ([3]; 2, 8 and 24 h) of the same molecule?
Answer: The value was “identical”.

Question: What about the “Concentration in EJ xenografts” value ([3]; 2 h after CPT-11 10 mg/kg i.v.) of the same molecule?
Answer: The value was 1350 ± 200 ng drug/g tumor.

Question: What about the “Concentration in EJ/mβG xenografts” value ([3]; 2 h after CPT-11 10 mg/kg i.v.) of the same molecule?
Answer: Its value is 1500 ± 230 ng drug/g tumor.

Question: And the “Concentration in EJ xenografts” value ([3]; 8 h after CPT-11 10 mg/kg i.v.)?
Answer: Its value is 87 ± 17 ng drug/g tumor.

Question: And the “Concentration in EJ/mβG xenografts” value ([3]; 8 h after CPT-11 10 mg/kg i.v.)?
Answer: The value was 77 ± 178 ng drug/g tumor.

Question: What about the “Concentration in EJ xenografts” value [3, 9] of the same molecule?
Answer: Its value is 0.58 ± 0.09 ng drug/g tumor.

Question: What about the “Concentration in EJ/mβG xenografts” value [3, 9] of the same molecule?
Answer: The value was 0.63 ± 0.11 ng drug/g tumor.

Question: What about the “Delay of tumor growth” value (EJ tumor xenografts) of the same molecule?
Answer: The value was “did not significantly delay”.

B1: S2: human beta-glucuronidase variant V159M, T545S, E595L, T599L, SEQ ID NO: 8 (protein)
chain: AAQPALQGGMLYPQESPSRECKELDGLWSFRADFSDNRRRGFEEQWYRRPLWESGPTVDMPVPSSFNDISQDWRLRHFVGWVWYEREVILPERWTQDLRTRVVLRIGSAHSYAIVWVNGVDTLEHEGGYLPFEADISNLVQMGPLPSRLRITIAINNTLTPTTLPPGTIQYLTDTSKYPKGYFVQNTYFDFFNYAGLQRSVLLYTTPTTYIDDITVTTSVEQDSGLVNYQISVKGSNLFKLEVRLLDAENKVVANGTGTQGQLKVPGVSLWWPYLMHERPAYLYSLEVQLTAQTSLGPVSDFYTLPVGIRTVAVTKSQFLINGKPFYFHGVNKHEDADIRGKGFDWPLLVKDFNLLRWLGANAFRTSHYPYAEEVMQMCDRYGIVVIDECPGVGLALPQFFNNVSLHHHMQVMEEVVRRDKNHPAVVMWSVANEPASHLESAGYYLKMVIAHTKSLDPSRPVTFVSNSNYAADKGAPYVDVICLNSYYSWYHDYGHLELIQLQLATQFENWYKKYQKPIIQSEYGAESIAGFHQDPPLMFTEEYQKSLLEQYHLGLDQKRRKYVVGELIWNFADFMTLQSPLRVLGNKKGIFTRQRQPKSAAFLLRERYWKIANETRYPHSVAKSQCLENSPFTSVD
modifications: Laboratory generated variant, S2, based upon the human beta-glucuronidase
Question: With B1 as the molecule, how does the “Fold improvement in prodrug activation over wild type (SN-38G)” value ([4]; pH 6.8) read?
Answer: The value was 11 fold.

Question: What about the “EC50 of enzyme for killing of EJ cells with SN-38G” value ([4]; pH 6.8, 24 h) of the same molecule?
Answer: Its value is 0.0084 µg/mL.

Question: And the Km ([5]; pH 4.5, 37° C.)?
Answer: The Km was 8.1 ± 0.8 µM.

Question: And the kcat ([5]; pH 4.5, 37° C.)?
Answer: Its kcat is 107 ± 7 s⁻¹.

Question: What about the Km ([5]; pH 7.0, 37° C.) of the same molecule?
Answer: The Km was 35 ± 3 µM.

Question: What about the kcat ([5]; pH 7.0, 37° C.) of the same molecule?
Answer: Its kcat is 42 ± 4 s⁻¹.

Question: What about the “kcat/Km at pH 7.0, fold greater than kcat/Km of wild type at pH 4.5” value ([5]; variant at pH 7.0 vs wild type at pH 4.5) of the same molecule?
Answer: Its value is “about 2 fold”.

Question: And the “Enzymatic activity compared with wild-type hβG” value [6]?
Answer: The value was “significantly greater”.

Question: What about the “Relative activity (FL4/FL1 normalized to wild-type human β-glucuronidase)” value [7] of the same molecule?
Answer: Its value is 65.

Question: And the “Fold more effective than wild type (HAMG activation)” value ([8]; pH 6.8)?
Answer: Its value is 9 fold.

Question: And the “EC50 of enzyme for killing of EJ cells with HAMG” value ([8]; pH 6.8, 24 h)?
Answer: The value was 2.7 µg/mL.
